Test results published in US12076307B2, “Compositions for prevention or treatment of acute radiation syndrome and other radiation exposure” (priority 2017, dated 2024).

How the values were obtained:
[1] = In vitro plasma stability, human plasma; type: in vitro ADME; conditions: Humans; 1 μM; 37° C.; n=3
Experimental: (§1) To assess the stability of EC-18 in plasma, the test material, or the standard reference material (test concentration 1 μM) was mixed with rat and human plasma and allowed to react for 1 hr at 37° C. Then, the residual EC-18 concentration was measured by LC-MS/MS. As standard reference materials, albendazole (a drug with high plasma stability) and vinpocetine (a drug with low plasma stability) were tested in parallel. When allowed to react with rat and human plasma for 1 hr, the residual EC-18 concentration in both rat and human plasma was >99% of the initial dose.

[2] = In vitro plasma stability, rat plasma; type: in vitro ADME; conditions: Rats; 1 μM; 37° C.; n=3
Experimental: as §1

CYP1A2 [3] = type: in vitro ADME, human; conditions: Positive Control, 50 μM; n=3
CYP2C19 = CYP2C19 (Homo sapiens, UniProt P33261); assay: CYP enzyme inhibition in human liver microsomes, CYP2C19
From the text: (§2) CYP1A2, CYP2C9, CYP2C19, CYP2D6, and CYP3A4 are the CYP subfamily, which plays a critical role in the metabolism of most drugs.

[4] = In vitro metabolic stability / metabolite screening, statements over all species; type: in vitro ADME, rat, dog, monkey, human; conditions: 100 μM
Experimental: [^14C]EC-18 or the positive control (7-ethoxycoumarin; 7-EC) reacted with microsomes prepared from hepatocytes of rats, dogs, monkeys, and humans, with or without cofactors, for 60 and 120 min. Then, the residual EC-18 concentration over time was measured by LC-RID ([^14C]EC-18) or LC-MS/MS (7-EC) (FIG. 63 and FIG. 64).
The LC-RID chromatographic profiles of radioactive metabolites produced in the 2-hr incubation reaction mixtures of the same test systems A, B, and C used to assess the metabolic and non-metabolic elimination rates of EC-18 were compared to the LC-UV chromatographic profiles of the synthetic reference material. […] The relative radioactivity of EC-18 accounted for 42-67% of total radioactivity. The peaks designated as M2, M3, and M5 were also determined in all species, and their relative radioactivity accounted for 12-34% of total radioactivity. The peaks of M4 and M6 were determined in monkeys and humans. M1 was abundantly detected in all species, but it was assumed to be a peak of early elution. The LC-UV chromatograms of reaction mixtures in each test system (FIGS. 65A-65C) and the relative radioactivity of the screened metabolites are shown in Table 25.

CYP1A2 [5] = biological target: T1, CYP1A2 (Homo sapiens, UniProt P05177); assay: biochemical; type: in vitro ADME
T1 construct: incubated with human liver microsomes; from tissue; host or cells: human liver microsomes

CYP2D6 = CYP2D6 (Homo sapiens, UniProt P10635); assay: CYP enzyme inhibition in human liver microsomes, CYP2D6
From the text: as §2

Sequence of CYP2D6 (P10635 whole entry): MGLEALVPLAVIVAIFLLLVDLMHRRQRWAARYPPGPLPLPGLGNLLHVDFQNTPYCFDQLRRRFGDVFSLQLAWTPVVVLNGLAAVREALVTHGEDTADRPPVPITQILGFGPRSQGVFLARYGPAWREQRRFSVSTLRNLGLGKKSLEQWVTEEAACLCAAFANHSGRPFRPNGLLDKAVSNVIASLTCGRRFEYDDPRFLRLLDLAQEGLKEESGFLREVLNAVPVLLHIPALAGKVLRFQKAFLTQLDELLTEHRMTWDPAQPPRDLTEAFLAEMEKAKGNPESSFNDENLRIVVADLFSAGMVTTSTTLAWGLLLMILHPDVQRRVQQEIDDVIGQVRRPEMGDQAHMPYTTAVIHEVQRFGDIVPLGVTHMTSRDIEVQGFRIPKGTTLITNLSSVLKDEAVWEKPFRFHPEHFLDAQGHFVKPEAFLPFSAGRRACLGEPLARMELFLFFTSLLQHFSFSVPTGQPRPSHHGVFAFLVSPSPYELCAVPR
Sequence of CYP2C19 (P33261 whole entry): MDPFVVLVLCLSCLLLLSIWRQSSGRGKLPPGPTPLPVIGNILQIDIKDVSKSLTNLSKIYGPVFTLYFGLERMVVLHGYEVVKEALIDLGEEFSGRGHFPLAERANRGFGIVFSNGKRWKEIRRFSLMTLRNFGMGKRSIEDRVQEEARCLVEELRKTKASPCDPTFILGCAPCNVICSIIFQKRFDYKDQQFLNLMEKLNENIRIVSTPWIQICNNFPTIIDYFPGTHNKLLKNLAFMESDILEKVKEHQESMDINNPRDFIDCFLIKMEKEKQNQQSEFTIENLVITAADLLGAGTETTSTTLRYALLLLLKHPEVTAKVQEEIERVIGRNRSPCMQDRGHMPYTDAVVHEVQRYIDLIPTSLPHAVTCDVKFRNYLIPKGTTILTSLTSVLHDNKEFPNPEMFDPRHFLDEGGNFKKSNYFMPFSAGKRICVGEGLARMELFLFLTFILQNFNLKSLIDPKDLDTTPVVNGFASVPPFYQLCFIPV
T1 sequence (P05177 whole entry): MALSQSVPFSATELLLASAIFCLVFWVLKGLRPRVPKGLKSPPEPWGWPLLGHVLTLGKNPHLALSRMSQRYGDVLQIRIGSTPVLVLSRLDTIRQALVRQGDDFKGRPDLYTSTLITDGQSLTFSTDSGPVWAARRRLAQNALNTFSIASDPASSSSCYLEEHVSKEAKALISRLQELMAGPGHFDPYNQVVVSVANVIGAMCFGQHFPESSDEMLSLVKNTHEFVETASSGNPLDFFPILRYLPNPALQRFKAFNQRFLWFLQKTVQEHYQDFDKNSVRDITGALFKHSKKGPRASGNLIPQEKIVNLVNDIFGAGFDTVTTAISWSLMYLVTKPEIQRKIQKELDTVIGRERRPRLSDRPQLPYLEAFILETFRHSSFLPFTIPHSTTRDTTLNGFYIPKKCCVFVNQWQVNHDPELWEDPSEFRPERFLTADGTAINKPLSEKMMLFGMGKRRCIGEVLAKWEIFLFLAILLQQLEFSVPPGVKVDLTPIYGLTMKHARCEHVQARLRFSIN

With `CCOC(=O)C1=C[C@]2(CC)CCCN3CCc4c(n1c1ccccc41)[C@@H]32` [Vinpocetin, vinpocetine, reference compound] the “Residual Concentration Relative to the Initial Dose After Reaction for 1 hr in Plasma” value [1] was 85.3 ± 3.8% and the “Residual Concentration Relative to the Initial Dose After Reaction for 1 hr in Plasma” value [2] was 52.4 ± 7.2%.
In the case of `COc1ccc2[nH]c([S+]([O-])Cc3ncc(C)c(OC)c3C)nc2c1` (stereo not shown) [omeprazole, reference compound], the “Enzyme Activity CYP1A2” value (CYP1A2 [3]) is reported as 6.56 ± 2.86 pmol/106 Cells/Min and the IC50 (CYP2C19) is reported as 6 µM.
For `CCOc1ccc2ccc(=O)oc2c1` [7-EC, 7-ethoxycoumarin, reference compound], the “share of initial concentration eliminated” value ([4]; 1 hr, test systems A and B, rats, dogs, monkeys, humans) was ≥ 99%, the “share of initial concentration retained” value ([4]; 2 hrs, test system C) was ≥ 92% and the IC50 (CYP1A2 [5]) was 1.7 µM.
In the case of `CCCSc1ccc2nc(NC(=O)OC)[nH]c2c1` [Albendazol, albendazole, reference compound], the “Residual Concentration Relative to the Initial Dose After Reaction for 1 hr in Plasma” value [1] is reported as >99% and the “Residual Concentration Relative to the Initial Dose After Reaction for 1 hr in Plasma” value [2] is reported as >99%.
In the case of `CC(CN1c2ccccc2Sc2ccccc21)N(C)C` (stereo not shown) [promethazine, reference compound], the IC50 (CYP2D6) is reported as 67.9 µM.
